This note sets out measurements from patent US10703779B2, “Oxadiazole cyclic peptides” (THE GOVERNING COUNCIL OF THE UNIVERSITY OF TORONTO, priority 2015, dated 2020).

Where “and” joins values, the source holds several entries; their conditions need not be identical. Equal values may be shown once. Read-outs that look alike come from different tables or passages of the source.

For data set [1] the following is noted: multicomponent bond.
For data set [2] the following is noted: multicomponent bond; 18-membered ring; propionaldehyde/(N-isocyanimino)triphenylphosphorane; 25.0 °C.
Data set [3] can be described thus: passive artificial membrane permeability (PAMPA) assay. It counts as in vitro ADME. As to conditions: FIG. 10, oxadiazole-containing macrocycles (entries 1-7) compared with homodetic counterparts (entries 8-12). The text has this:
Passive membrane permeability is an important property for the development of new therapeutics. […] Using this analysis method a −log Pe value <6.0 is indicitive of a passively membrane permeable compound, while a −log Pe>6.0 is indicative of a poorly permeable or non-permeable compound. […] (entry 12).
A general note: The PAMPA barrier holds no transporters, so it reflects passive diffusion.

The mark [4] stands for this setting: 15-membered ring, propionaldehyde/(N-isocyanimino)triphenylphosphorane, DCE/MeCN 1:1, 25.0 mM, 50.0 °C.
Setting [5] is: 18-membered ring, propionaldehyde/(N-isocyanimino)triphenylphosphorane, DCE/MeCN 1:1, 25.0 mM, 50.0 °C.
[6] abbreviates: 18-membered ring, propionaldehyde/(N-isocyanimino)triphenylphosphorane, DCE/MeCN 1:1, 25.0 mM, 50.0 °C, 2 steps.
Where [7] appears, read: 18-membered ring, propionaldehyde/(N-isocyanimino)triphenylphosphorane, DCE/MeCN 1:1, 20.0 mM, 50.0 °C.
The mark [8] stands for this setting: 21-membered ring, propionaldehyde/(N-isocyanimino)triphenylphosphorane, DCE/MeCN 1:1, 25.0 mM, 50.0 °C, 2 steps.
Setting [9] is: 21-membered ring, propionaldehyde/(N-isocyanimino)triphenylphosphorane, DCE/MeCN 1:1, 25.0 mM, 50.0 °C.
[10] abbreviates: 18-membered ring, phenylacetaldehyde/(N-isocyanimino)triphenylphosphorane, DCE/MeCN 1:1, 25.0 mM, 50.0 °C, 2 steps.

AGFA: the figures for the ring closure, isolated yield in data set [1] (15-membered ring) and in data set [1] (setting [4]) were 32% and 24%, respectively.
Regarding ALFA, in data set [1] (setting [4]), the ring closure, isolated yield is 20%.
In data set [1] (setting [5]), APLGA had a ring closure, isolated yield of 15%.
Regarding APLGK, the ring closure, isolated yield in data set [1] (setting [6]) came out at 60%.
The same measure, in the same setting: for APLGS the value was 70%.
With GPLGA, the ring closure, isolated yield is 13% and 25% in data set [1] (18-membered ring); 20% in data set [1] (setting [5]).
For PAFA, in data set [1] (setting [4]), the ring closure, isolated yield amounted to 23%.
PALAF came in with a ring closure, isolated yield in data set [1] (setting [7]) of 20%.
Regarding PALGF, the ring closure, isolated yield in data set [1] (setting [7]) was determined as 25%.
As to PASWKG, in data set [1] (setting [8]), the ring closure, isolated yield was found to be 7%.
With PDAWG, the ring closure, isolated yield in data set [1] (setting [6]) is 22%.
Consider PDAWYG, for which, in data set [1] (setting [8]), the ring closure, isolated yield is 28%.
Consider PFDLA, for which the ring closure, isolated yield in data set [1] (setting [6]) came to 45%.
With PFLDA, the ring closure, isolated yield in data set [1] (18-membered ring, acetone/(N-isocyanimino)triphenylphosphorane, DCE/MeCN 1:1 + acetone 30% v/v, 25.0 mM, 50.0 °C, 2 steps) was 10%.
In turn, PFLLF gave a ring closure, isolated yield in data set [1] (18-membered ring, propionaldehyde/(N-isocyanimino)triphenylphosphorane, DCE/MeCN 1:1, 16.7 mM, 50.0 °C) of 25%.
Turning to PGLAF, the ring closure, isolated yield in data set [1] (setting [7]) was determined as 23%.
On to PGLGF, for which the ring closure, isolated yield turned out to be 32% in data set [1] (18-membered ring); 29% in data set [1] (18-membered ring, phenylacetaldehyde/(N-isocyanimino)triphenylphosphorane, DCE/MeCN 1:1, 25.0 mM, 50.0 °C); 68% in data set [1] (18-membered ring, propionaldehyde/(N-isocyanimino)triphenylphosphorane, DCE/MeCN 1:1, 50.0 mM, 25.0 °C). The ring closure, conversion in data set [2] turned out to be 100%.
For the substance PGLGFA, the ring closure, isolated yield in data set [1] (setting [9]) was determined as 41%.
As to PGRGDWA, the ring closure, isolated yield in data set [1] (24-membered ring, propionaldehyde/(N-isocyanimino)triphenylphosphorane, DCE/MeCN 1:1, 25.0 mM, 50.0 °C, 2 steps) came out at 22%.
On to PLDFA, for which the ring closure, isolated yield in data set [1] (setting [6]) amounted to 52%.
PRGDA had a ring closure, isolated yield in data set [1] (setting [6]) of 70%.
Regarding PSLYA, the ring closure, isolated yield in data set [1] (setting [6]) worked out at 24%.
In data set [1] (setting [10]), PSLYG showed a ring closure, isolated yield of 22%.
Still for that read-out and setting: as for PSWAG, the figure is 26%.
PSarLGF showed a ring closure, isolated yield in data set [1] (18-membered ring, α-MIDA-borylaldehyde/(N-isocyanimino)triphenylphosphorane, DCE/MeCN 1:1, 25.0 mM, 50.0 °C) of 28%.
In data set [1] (setting [9]), PSarLGFA registered a ring closure, isolated yield of 42%.
With PWASG, the ring closure, isolated yield in data set [1] (setting [6]) turned out to be 28%.
For cyclo(PFLLFA), the “passive membrane permeability (result in words)” value in data set [3] is given as “single exception”.
